Measured values reported in PubChem BioAssay (NCI).
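Where inhibition never reached the appropriate level, the endpoint shown equals the highest concentration tested. Otherwise, values were interpolated linearly from a five-concentration, 48-hour dose response in 96-well plates. Here, GI50 denotes the concentration required for 50% inhibition of growth. TGI is the concentration that stops growth completely.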

Legend:
Assay in all cases: growth of human tumour cells (NCI), 48 h
MOLT-4 leukemia = test system: MOLT-4 leukemia
RXF 393 renal = test system: RXF 393 renal
OVCAR-8 ovarian = test system: OVCAR-8 ovarian
LOX IMVI melanoma = test system: LOX IMVI melanoma
HOP-92 NSCLC = test system: HOP-92 NSCLC
SF-295 CNS = test system: SF-295 CNS
UACC-257 melanoma = test system: UACC-257 melanoma
KM12 colon = test system: KM12 colon
EKVX NSCLC = test system: EKVX NSCLC
SK-OV-3 ovarian = test system: SK-OV-3 ovarian

| SMILES | GI50 (MOLT-4 leukemia) [nM] | TGI (MOLT-4 leukemia) [µM] | TGI (RXF 393 renal) [µM] | GI50 (OVCAR-8 ovarian) [nM] | TGI (OVCAR-8 ovarian) [µM] | GI50 (LOX IMVI melanoma) [nM] | TGI (LOX IMVI melanoma) [µM] | TGI (HOP-92 NSCLC) [µM] | GI50 (SF-295 CNS) [nM] | TGI (SF-295 CNS) [µM] | GI50 (UACC-257 melanoma) [nM] | TGI (UACC-257 melanoma) [µM] | GI50 (KM12 colon) [nM] | TGI (KM12 colon) [µM] | GI50 (EKVX NSCLC) [µM] | TGI (EKVX NSCLC) [µM] | GI50 (SK-OV-3 ovarian) [nM] | TGI (SK-OV-3 ovarian) [µM] | GI50 (RXF 393 renal) [nM] | GI50 (HOP-92 NSCLC) [nM] |
| --- | --- | --- | --- | --- | --- | --- | --- | --- | --- | --- | --- | --- | --- | --- | --- | --- | --- | --- | --- | --- |
| COc1cccc2c1C(=N)c1c(O)c3c(c(O)c1C2=O)C[C@@](O)(C(C)=O)C[C@@H]3O[C@H]1C[C@H](N)[C@H](O)[C@H](C)O1 | 42.8 | 2.89 | 3.58 | 327 | 1.95 | 178 | 1.49 | 7.35 | 219 | 1.27 | 1340 | 8.99 | 1320 | 8.68 | 2.53 | 12.6 | 288 | 2.6 | – | – |
| CC(C)(C)c1cc([N+](=O)[O-])cc([N+](=O)[O-])c1O | – | > 10 | > 10 | – | > 10 | – | > 10 | > 10 | – | > 10 | – | > 10 | – | > 10 | – | > 10 | – | > 10 | – | – |
| O=C(Nc1ccc(C(F)(F)F)cc1[N+](=O)[O-])C(=O)C1NC(=S)NC1=O (stereo not drawn) | – | > 100 | > 100 | – | > 100 | – | > 100 | > 100 | – | > 100 | – | > 100 | – | > 100 | – | > 100 | – | > 100 | – | – |
| CCN1CCCc2cc3c(C(F)(F)F)cc(=O)oc3cc21 | – | > 100 | 63.2 | – | > 100 | – | > 100 | 84 | – | > 100 | – | > 100 | – | > 100 | – | > 100 | – | > 100 | – | – |
| CN(c1ccc(NC(=O)Nc2c(Cl)cccc2Cl)cc1)c1ccnc(Nc2cccc(CS(C)(=O)=O)c2)n1 | > 25000 | > 25 | 8.08 | 2310 | 6.82 | 2370 | > 14.7 | 12 | 1540 | 12.6 | 1940 | 6.55 | 104 | 5.12 | 6.31 | > 25 | 4720 | 12 | 2230 | 2880 |
| CC(=O)Oc1c(C)c(-c2ccccc2)c(C)c(-c2ccccc2)c1C(=S)c1ccccc1 | – | > 100 | > 100 | – | > 100 | – | > 100 | > 100 | – | > 100 | – | > 100 | – | > 100 | – | > 100 | – | > 100 | – | – |
| C=C(C)C1CC2(C)C(C)CC(O)CC2C(OC(=O)C=C(C)C)C1O (stereo not drawn) | – | 83.1 | > 100 | – | > 100 | – | > 100 | > 100 | – | 84.3 | – | > 100 | – | > 100 | – | > 100 | – | > 100 | – | – |
| Cc1cc(N(CC(C)Br)CC(C)Br)ccc1N=Nc1ccccc1C(=O)O (stereo not drawn) | – | > 100 | 4.3 | – | > 52.4 | – | 31.9 | 10 | – | 6.33 | – | 19 | – | 27.4 | – | 21.8 | – | 39.7 | – | – |
| CNC(=O)OCc1c(COC(=O)NC)c(-c2ccc(-c3ccccc3)cc2)n(C)c1C | – | 8.95 | 2.91 | – | 10.4 | – | 11.7 | 11.9 | – | 10.8 | – | 37.3 | – | 24.9 | – | 11.1 | – | 11.8 | – | – |
